Source: patent US9149038B2, “4-amino-6-(heterocyclic)picolinates and 6-amino-2-(heterocyclic)pyrimidine-4-carboxylates and their use as herbicides” (Dow AgroSciences LLC, priority 2013, dated 2015)
Where two headings read alike, the source gives them in different places.

Legend:
[1] = test system: Key Broadleaf Weed and Crop Species; assay: Post-Emergent Test II: postemergent herbicidal activity, visual rating after 14 d (Table 7); type: in vivo; conditions: post-emergence, 336 h; for pest or weed control at 35 g/ha: 35 g ai/ha; for pest or weed control at 70 g/ha: 70 g ai/ha; for pest or weed control at 140 g/ha: 140 g ai/ha
Procedure, shortened: (§1)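 Plants were raised in a greenhouse for 7-21 d and treated once at the first or second true leaf stage. Compounds, dissolved in 97:3 acetone:DMSO then diluted into an aqueous acetone/isopropanol/crop oil/Triton X-155 carrier, were applied by overhead track sprayer at 187 L/ha. After 14 d with subirrigation, injury was scored visually from 0 (none) to 100 (complete kill).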

[2] = test system: Key Grass and Sedge Weeds as well as Grass Crops; assay: Post-Emergent Test II: postemergent herbicidal activity, visual rating after 14 d (Table 8); type: in vivo; conditions: post-emergence, 336 h; for pest or weed control at 35 g/ha: 35 g ai/ha; for pest or weed control at 70 g/ha: 70 g ai/ha; for pest or weed control at 140 g/ha: 140 g ai/ha
Procedure, shortened: as §1

[3] = lambsquarters (Chenopodium album), read-out: Visual Growth Reduction (%) 14 Days After Application CHEAL
[4] = oilseed rape, canola (Brassica napus), read-out: Visual Growth Reduction (%) 14 Days After Application BRSNN
[5] = redroot pigweed (Amaranthus retroflexus), read-out: Visual Growth Reduction (%) 14 Days After Application AMARE
[6] = sunflower (Helianthus annuus), read-out: Visual Growth Reduction (%) 14 Days After Application HELAN
[7] = velvetleaf (Abutilon theophrasti), read-out: Visual Growth Reduction (%) 14 Days After Application ABUTH
[8] = wild poinsettia (Euphorbia heterophylla), read-out: Visual Growth Reduction (%) 14 Days After Application EPHHL
[9] = barnyardgrass (Echinochloa crus-galli), read-out: Visual Growth Reduction (%) 14 Days After Application ECHCG
[10] = giant foxtail (Setaria faberi), read-out: Visual Growth Reduction (%) 14 Days After Application SETFA
[11] = maize, corn (Zea mays), read-out: Visual Growth Reduction (%) 14 Days After Application ZEAMX
[12] = rice (Oryza sativa), read-out: Visual Growth Reduction (%) 14 Days After Application ORYSA
[13] = wheat, spring (Triticum aestivum), read-out: Visual Growth Reduction (%) 14 Days After Application TRZAS
[14] = yellow nutsedge (Cyperus esculentus), read-out: Visual Growth Reduction (%) 14 Days After Application CYPES

CC1(C)Oc2ccc(-c3nc(C(=O)O)c(Cl)c(N)c3F)cc2O1 [Compound 19]
95 to 100%: pest or weed control at 35 g/ha [1, 8] | pest or weed control at 70 g/ha [1, 8] | pest or weed control at 140 g/ha [1, 8] | pest or weed control at 140 g/ha [2, 9] | pest or weed control at 35 g/ha [2, 14] | pest or weed control at 70 g/ha [2, 14] | pest or weed control at 140 g/ha [2, 14]
0 to 29%: pest or weed control at 35 g/ha [1, 3] | pest or weed control at 70 g/ha [1, 3] | pest or weed control at 140 g/ha [1, 3] | pest or weed control at 35 g/ha [1, 4] | pest or weed control at 35 g/ha [1, 6] | pest or weed control at 70 g/ha [1, 6] | pest or weed control at 35 g/ha [1, 7] | pest or weed control at 35 g/ha [2, 10] | pest or weed control at 70 g/ha [2, 10] | pest or weed control at 140 g/ha [2, 10] | pest or weed control at 35 g/ha [2, 12] | pest or weed control at 70 g/ha [2, 12] | pest or weed control at 140 g/ha [2, 12] | pest or weed control at 35 g/ha [2, 13] | pest or weed control at 70 g/ha [2, 13] | pest or weed control at 140 g/ha [2, 13]
45 to 59%: pest or weed control at 70 g/ha [1, 4]
60 to 74%: pest or weed control at 140 g/ha [1, 4] | pest or weed control at 70 g/ha [1, 7] | pest or weed control at 140 g/ha [1, 7] | pest or weed control at 35 g/ha [2, 11] | pest or weed control at 70 g/ha [2, 11] | pest or weed control at 140 g/ha [2, 11]
85 to 94%: pest or weed control at 35 g/ha [1, 5] | pest or weed control at 70 g/ha [1, 5] | pest or weed control at 140 g/ha [1, 5] | pest or weed control at 35 g/ha [2, 9] | pest or weed control at 70 g/ha [2, 9]
30 to 44%: pest or weed control at 140 g/ha [1, 6]

COC(=O)c1nc(-c2ccc3c(c2)OC(C)O3)c(F)c(N)c1Cl (stereo not drawn) [Compound 20]
85 to 94%: pest or weed control at 140 g/ha [1, 6] | pest or weed control at 70 g/ha [1, 8] | pest or weed control at 140 g/ha [1, 8] | pest or weed control at 140 g/ha [2, 9] | pest or weed control at 140 g/ha [2, 10] | pest or weed control at 140 g/ha [2, 14]
75 to 84%: pest or weed control at 140 g/ha [1, 3] | pest or weed control at 70 g/ha [1, 6] | pest or weed control at 70 g/ha [2, 9] | pest or weed control at 70 g/ha [2, 10] | pest or weed control at 70 g/ha [2, 14]
95 to 100%: pest or weed control at 70 g/ha [1, 5] | pest or weed control at 140 g/ha [1, 5] | pest or weed control at 140 g/ha [1, 7]
45 to 59%: pest or weed control at 35 g/ha [1, 8] | pest or weed control at 35 g/ha [2, 10] | pest or weed control at 70 g/ha [2, 11] | pest or weed control at 35 g/ha [2, 14]
60 to 74%: pest or weed control at 35 g/ha [1, 5] | pest or weed control at 35 g/ha [1, 6] | pest or weed control at 70 g/ha [1, 7] | pest or weed control at 35 g/ha [2, 9] | pest or weed control at 140 g/ha [2, 11]
30 to 44%: pest or weed control at 70 g/ha [1, 3] | pest or weed control at 140 g/ha [1, 4] | pest or weed control at 35 g/ha [1, 7] | pest or weed control at 35 g/ha [2, 11] | pest or weed control at 70 g/ha [2, 12] | pest or weed control at 140 g/ha [2, 12]
0 to 29%: pest or weed control at 35 g/ha [1, 3] | pest or weed control at 35 g/ha [1, 4] | pest or weed control at 70 g/ha [1, 4] | pest or weed control at 35 g/ha [2, 12] | pest or weed control at 35 g/ha [2, 13] | pest or weed control at 70 g/ha [2, 13] | pest or weed control at 140 g/ha [2, 13]

COC(=O)c1nc(-c2cc3c(cc2F)OC(F)(F)O3)c(F)c(N)c1F [Compound 21]
45 to 59%: pest or weed control at 35 g/ha [1, 6] | pest or weed control at 70 g/ha [1, 6] | pest or weed control at 140 g/ha [2, 11]
0 to 29%: pest or weed control at 35 g/ha [1, 3] | pest or weed control at 70 g/ha [1, 3] | pest or weed control at 140 g/ha [1, 3] | pest or weed control at 35 g/ha [1, 4] | pest or weed control at 70 g/ha [1, 4] | pest or weed control at 140 g/ha [1, 4] | pest or weed control at 35 g/ha [1, 5] | pest or weed control at 70 g/ha [1, 5] | pest or weed control at 140 g/ha [1, 5] | pest or weed control at 35 g/ha [1, 7] | pest or weed control at 70 g/ha [1, 7] | pest or weed control at 140 g/ha [1, 7] | pest or weed control at 35 g/ha [1, 8] | pest or weed control at 70 g/ha [1, 8] | pest or weed control at 140 g/ha [1, 8] | pest or weed control at 35 g/ha [2, 9] | pest or weed control at 70 g/ha [2, 9] | pest or weed control at 140 g/ha [2, 9] | pest or weed control at 35 g/ha [2, 10] | pest or weed control at 70 g/ha [2, 10] | pest or weed control at 35 g/ha [2, 11] | pest or weed control at 70 g/ha [2, 11] | pest or weed control at 35 g/ha [2, 12] | pest or weed control at 70 g/ha [2, 12] | pest or weed control at 140 g/ha [2, 12] | pest or weed control at 35 g/ha [2, 13] | pest or weed control at 70 g/ha [2, 13] | pest or weed control at 140 g/ha [2, 13] | pest or weed control at 35 g/ha [2, 14] | pest or weed control at 70 g/ha [2, 14] | pest or weed control at 140 g/ha [2, 14]
60 to 74%: pest or weed control at 140 g/ha [1, 6] | pest or weed control at 140 g/ha [2, 10]

COc1c(C(=O)O)nc(-c2cc3c(cc2F)OC(F)(F)O3)c(F)c1N [Compound 23]
0 to 29%: pest or weed control at 35 g/ha [1, 3] | pest or weed control at 70 g/ha [1, 3] | pest or weed control at 140 g/ha [1, 3] | pest or weed control at 35 g/ha [1, 4] | pest or weed control at 35 g/ha [1, 5] | pest or weed control at 70 g/ha [1, 5] | pest or weed control at 140 g/ha [1, 5] | pest or weed control at 35 g/ha [1, 7] | pest or weed control at 70 g/ha [1, 7] | pest or weed control at 140 g/ha [1, 7] | pest or weed control at 35 g/ha [2, 12] | pest or weed control at 70 g/ha [2, 12] | pest or weed control at 140 g/ha [2, 12] | pest or weed control at 35 g/ha [2, 14]
75 to 84%: pest or weed control at 70 g/ha [1, 4] | pest or weed control at 35 g/ha [1, 6] | pest or weed control at 35 g/ha [2, 9] | pest or weed control at 70 g/ha [2, 10] | pest or weed control at 140 g/ha [2, 10]
60 to 74%: pest or weed control at 35 g/ha [2, 10] | pest or weed control at 35 g/ha [2, 11] | pest or weed control at 70 g/ha [2, 11] | pest or weed control at 140 g/ha [2, 11] | pest or weed control at 140 g/ha [2, 13]
95 to 100%: pest or weed control at 35 g/ha [1, 8] | pest or weed control at 70 g/ha [1, 8] | pest or weed control at 140 g/ha [1, 8] | pest or weed control at 70 g/ha [2, 9] | pest or weed control at 140 g/ha [2, 9]
45 to 59%: pest or weed control at 35 g/ha [2, 13] | pest or weed control at 70 g/ha [2, 13] | pest or weed control at 70 g/ha [2, 14] | pest or weed control at 140 g/ha [2, 14]
85 to 94%: pest or weed control at 140 g/ha [1, 4] | pest or weed control at 70 g/ha [1, 6] | pest or weed control at 140 g/ha [1, 6]
